Test results taken from ChEMBL document CHEMBL4219188, “Design, synthesis, neuroprotective, antibacterial activities and docking studies of novel thieno[2,3-d]pyrimidine-alkyne Mannich base and oxadiazole hybrids” (Bioorg Med Chem Lett, 2018).
In brackets after ≈: the same amount, converted by molar mass.

Key:
Bacillus subtilis [1] = test: Antibacterial activity against Bacillus subtilis assessed as diameter of inhibition zone measured after 24 hrs by agar well diffusion method; assay type: functional
Escherichia coli [2] = test: Antibacterial activity against Escherichia coli assessed as diameter of inhibition zone measured after 24 hrs by agar well diffusion method; assay type: functional
Pseudomonas aeruginosa [3] = test: Antibacterial activity against Pseudomonas aeruginosa assessed as diameter of inhibition zone measured after 24 hrs by agar well diffusion method; assay type: functional
[4] = Cytotoxicity against rat PC12 cells after 24 hrs by MTT assay; assay type: cell-based, PC-12; conditions: for MNTC at 24 h: read-out: MNCC
[5] = Cytotoxicity against rat PC12 cells assessed as cell viability at MNTC after 24 hrs by MTT assay relative to control; assay type: cell-based, PC-12; conditions: read-out: Activity
[6] = Cytotoxicity against rat PC12 cells assessed as cell viability at CC50 after 24 hrs by MTT assay relative to control; assay type: cell-based, PC-12; conditions: read-out: Activity
PC-12 [7] = test: Neuroprotective activity against H2O2-induced cytotoxicity in rat PC12 cells assessed as increase in cell viability pretreated for 24 hrs followed by H2O2 addition by MTT assay; assay type: functional, cell-based
PC-12 [8] = test: Neuroprotective activity against H2O2-induced cytotoxicity in rat PC12 cells assessed as cell viability at EC50 pretreated for 24 hrs followed by H2O2 addition by MTT assay relative to control; assay type: functional
Staphylococcus aureus [9] = test: Antibacterial activity against Staphylococcus aureus assessed as diameter of inhibition zone measured after 24 hrs by agar well diffusion method; assay type: functional
Staphylococcus aureus [10] = test: Antibacterial activity against Staphylococcus aureus after 24 hrs by UV-vis spectrophotometric method; assay type: functional
Bacillus subtilis [11] = test: Antibacterial activity against Bacillus subtilis after 24 hrs by UV-vis spectrophotometric method; assay type: functional
Escherichia coli [12] = test: Antibacterial activity against Escherichia coli after 24 hrs by UV-vis spectrophotometric method; assay type: functional
Pseudomonas aeruginosa [13] = test: Antibacterial activity against Pseudomonas aeruginosa after 24 hrs by UV-vis spectrophotometric method; assay type: functional

Row | SMILES | diameter of the inhibition zone (DIZ) (Bacillus subtilis [1]) | diameter of the inhibition zone (DIZ) (Escherichia coli [2]) | diameter of the inhibition zone (DIZ) (Pseudomonas aeruginosa [3]) | CC50 at 24 h [4] | MNTC at 24 h [4] | viability at 24 h [5] | viability at 24 h [6] | Activity (PC-12 [7]) | EC50 (PC-12 [7]) | Activity (PC-12 [8]) | diameter of the inhibition zone (DIZ) (Staphylococcus aureus [9]) | MIC (Staphylococcus aureus [10]) | MIC (Bacillus subtilis [11]) | MIC (Escherichia coli [12]) | MIC (Pseudomonas aeruginosa [13])
1 | Cc1c(C(=O)OCC#CCN2CCN(c3cc(C4CC4)ccc3C#N)CC2)sc2ncnc(N3CCCCC3)c12 | 16 mm | 17 mm | 17 mm | 148 µg/mL (≈ 267 µM) | 110 µg/mL | 99.6% | 50.1% | Dose-dependent effect | 16.2 µg/mL (≈ 29.2 µM) | 75.14% | 14 mm | 0.0422 µg/mL (≈ 0.0761 µM) | 0.0581 µg/mL (≈ 0.105 µM) | 0.521 µg/mL (≈ 0.939 µM) | 0.0686 µg/mL (≈ 0.124 µM)
2 | Cc1ccc(C#N)c(N2CCN(CC#CCOC(=O)c3sc4ncnc(N5CCOCC5)c4c3C)CC2)c1 | 13 mm | 13 mm | 14 mm | 146 µg/mL (≈ 275 µM) | 118 µg/mL | 98.5% | 49.1% | Dose-dependent effect | 41.3 µg/mL (≈ 77.9 µM) | 74.98% | 7 mm | 0.062 µg/mL (≈ 0.117 µM) | 0.0156 µg/mL (≈ 0.0294 µM) | 0.0324 µg/mL (≈ 0.0611 µM) | 0.0624 µg/mL (≈ 0.118 µM)
3 | Cc1c(C(=O)OCC#CCN2CCN(c3cc(C4CC4)ccc3C#N)CC2)sc2ncnc(N3CCOCC3)c12 | 10 mm | 12 mm | 13 mm | 198 µg/mL (≈ 356 µM) | 150 µg/mL | 99.1% | 49.9% | Dose-dependent effect | 12.4 µg/mL (≈ 22.3 µM) | 75.15% | 13 mm | 0.312 µg/mL (≈ 0.56 µM) | 0.124 µg/mL (≈ 0.223 µM) | 0.186 µg/mL (≈ 0.334 µM) | 0.0634 µg/mL (≈ 0.114 µM)
4 | COc1ccc(N2CCN(CC#CCOC(=O)c3sc4ncnc(N5CCOCC5)c4c3C)CC2)cc1 | 12 mm | 12 mm | 14 mm | 144 µg/mL (≈ 276 µM) | 60 µg/mL | 98.1% | 49.1% | Dose-dependent effect | 36.2 µg/mL (≈ 69.3 µM) | 74.89% | 8 mm | 0.062 µg/mL (≈ 0.119 µM) | 0.062 µg/mL (≈ 0.119 µM) | 0.12 µg/mL (≈ 0.23 µM) | 0.062 µg/mL (≈ 0.119 µM)
5 | Cc1c(C(=O)OCC#CCN2CCN(c3ccc(Br)cc3C#N)CC2)sc2ncnc(N3CCOCC3)c12 | 12 mm | 13 mm | 12 mm | 122 µg/mL (≈ 205 µM) | 100 µg/mL | 99.6% | 49% | Dose-dependent effect | 32.3 µg/mL (≈ 54.2 µM) | 75.44% | 10 mm | 0.526 µg/mL (≈ 0.883 µM) | 0.0628 µg/mL (≈ 0.105 µM) | 0.0324 µg/mL (≈ 0.0544 µM) | 0.0128 µg/mL (≈ 0.0215 µM)
6 | Cc1c(-c2nnc(-c3ccc(Cl)cc3)o2)sc2ncnc(N3CCCCC3)c12 | 13 mm | 15 mm | 14 mm | 151 µg/mL (≈ 366 µM) | 136 µg/mL | 98.2% | 48.9% | Dose-dependent effect | 21.8 µg/mL (≈ 53 µM) | 75.04% | 16 mm | 0.0224 µg/mL (≈ 0.0544 µM) | 0.0284 µg/mL (≈ 0.0689 µM) | 0.186 µg/mL (≈ 0.452 µM) | 0.144 µg/mL (≈ 0.35 µM)
7 | COc1ccc(-c2nnc(-c3sc4ncnc(N5CCCCC5)c4c3C)o2)cc1 | 14 mm | 17 mm | 12 mm | 124 µg/mL (≈ 305 µM) | 100 µg/mL | 99% | 49.9% | Dose-dependent effect | 20.1 µg/mL (≈ 49.4 µM) | 75.12% | 10 mm | 0.0366 µg/mL (≈ 0.0898 µM) | 0.0642 µg/mL (≈ 0.158 µM) | 0.0486 µg/mL (≈ 0.119 µM) | 0.0448 µg/mL (≈ 0.11 µM)
8 | Cc1c(-c2nnc(-c3ccc(Cl)cc3)o2)sc2ncnc(N3CCOCC3)c12 | 18 mm | 13 mm | 18 mm | 168 µg/mL (≈ 406 µM) | 120 µg/mL | 98.3% | 51.1% | Dose-dependent effect | 28.2 µg/mL (≈ 68 µM) | 77.18% | 13 mm | 0.0136 µg/mL (≈ 0.0329 µM) | 0.0144 µg/mL (≈ 0.0348 µM) | 0.0172 µg/mL (≈ 0.0416 µM) | 0.0144 µg/mL (≈ 0.0348 µM)
